Laboratory results published in patent publication US20110052623A1, “DRIED MICROBIAL CELLS OR MICROORGANISM EXTRACT CONTAINING STABILIZED (SS)-S-ADENOSYL-L-METHIONINE AND METHOD FOR PRODUCTION OF THE DRIED MICROORGANISM CELL OR MICROORGANISM EXTRACT” (KANEKA CORPORATION, priority 2007, published 2011).
Structures can show the parent of a compound that is named as a salt.

Assay: Stabilizing agent: dried yeast cells containing SAM with added compound preserved at 25° C. for 7 days
Format: physicochemical
Conditions: not given
Procedure: The yeast cells obtained in the Reference Example were suspended in deionized water in one-sixth (⅙) of the amount of the culture solution. Each of the compounds listed in table 3 (30% by weight in terms of dry weight) was separately added to the resultant, followed by freezing at −80° C. and lyophilization. Thus, dried yeast cells containing SAM were obtained.
Compound `N.O=P(O)(O)O` [Ammonium dihydrogen phosphate] has an SAM residual rate of 93.6%.
For `[Ca+2].[Cl-].[Cl-]` [Calcium chloride], the SAM residual rate was 93.7%.
`O=S(=O)([O-])[O-].[Cu+2]` [Copper sulfate] showed an SAM residual rate of 94.2%.
With `O.O.O.O.O.O.O.O=S(=O)([O-])[O-].[Fe+2]` [Ferrous sulfate heptahydrate] the SAM residual rate was 90.4%.
In the case of `O=S(=O)([O-])[O-].[Mg+2]` [Magnesium sulfate], the SAM residual rate is reported as 101.6%.
With `O=S(=O)([O-])[O-].[Zn+2]` [Zinc sulfate] the SAM residual rate was 94.3%.

Same assay, conditions: compound added at 30% by weight to dried yeast cells; 25° C., 7 days
For `O=C(O)CC(O)C(=O)O` (racemic) [DL-malic acid], the SAM residual rate was 99.1%.
Work on `CCC(N)C(=O)O` (racemic) [DL-α-amino-n-butyrate] yielded an SAM residual rate of 96.8%.
With `Cl.N` [Ammonium chloride] the SAM residual rate was 95.6%.
In the case of `N.N.O=S(=O)(O)O` [Ammonium sulfate], the SAM residual rate is reported as 87.5%.
`O=C(O)CC(O)(CC(=O)O)C(=O)O` [Citric acid] showed an SAM residual rate of 96.6%.
`OC[C@H]1O[C@@H](O[C@H]2[C@H](O)[C@@H](O)[C@H](O)O[C@@H]2CO)[C@H](O)[C@@H](O)[C@@H]1O` [D-cellobiose] showed an SAM residual rate of 93.1%.
With `CC(C)C[C@@H](N)C(=O)O` [D-leucine] the SAM residual rate was 91.9%.
Work on `OC[C@@H](O)[C@H](O)[C@H](O)[C@@H](O)CO` [Dulcitol] yielded an SAM residual rate of 92.2%.
Compound `OC[C@@H](O)[C@H](O)[C@H](O)[C@@H](O)CO` [Galactitol] has an SAM residual rate of 90.7%.
Compound `O=C[C@H](O)[C@@H](O)[C@@H](O)[C@H](O)CO` [Galactose] has an SAM residual rate of 99.7%.
Compound `O=C1O[C@H](CO)[C@@H](O)[C@H](O)[C@H]1O` [Glucono-δ-lactone] has an SAM residual rate of 100.7%.
Compound `NCC(=O)O` [Glycine] has an SAM residual rate of 97.5%.
Compound `O[C@H]1[C@H](O)[C@@H](O)[C@H](O)[C@@H](O)[C@H]1O` [Inositol] has an SAM residual rate of 96.2%.
`C[C@H](N)C(=O)O` [L-alanine] gave an SAM residual rate of 86.9%.
`O=C1O[C@H]([C@@H](O)CO)C(O)=C1O` [L-ascorbic acid] gave an SAM residual rate of 90.0%.
Work on `NC(=O)CC[C@H](N)C(=O)O` [L-glutamine] yielded an SAM residual rate of 94.5%.
For `CSCC[C@H](N)C(=O)O` [L-methionine], the SAM residual rate was 100.9%.
In the case of `O=C(CO)[C@@H](O)[C@H](O)[C@@H](O)CO` [L-sorbose], the SAM residual rate is reported as 88.4%.
Work on `O=C(O)[C@H](O)[C@@H](O)C(=O)O` [L-tartaric acid] yielded an SAM residual rate of 88.1%.
`C[C@@H](O)[C@H](N)C(=O)O` [L-threonine] showed an SAM residual rate of 92.0%.
In the case of `CC(C)[C@H](N)C(=O)O` [L-valine], the SAM residual rate is reported as 89.7%.
`OC[C@@H](O)[C@@H](O[C@@H]1O[C@H](CO)[C@H](O)[C@H](O)[C@H]1O)[C@H](O)[C@@H](O)CO` [Lactitol] showed an SAM residual rate of 91.3%.
`O=S(=O)([O-])[O-].[Mn+2]` [Manganese sulfate] gave an SAM residual rate of 95.0%.
`OC[C@@H](O)[C@@H](O)[C@H](O)[C@H](O)CO` [Mannitol] showed an SAM residual rate of 86.8%.
For `CC(=O)N[C@H]1C(O)O[C@H](CO)[C@@H](O)[C@@H]1O` (stereo partly drawn) [N-acetylglucosamine], the SAM residual rate was 97.6%.
For `O=C(O)c1cccnc1` [Nicotinic acid], the SAM residual rate was 102.3%.
In the case of `NC(=O)c1cccnc1` [Nicotinic-acid amide], the SAM residual rate is reported as 97.3%.
Compound `O=P(O)(O)O` [Phosphoric acid] has an SAM residual rate of 89.3%.
Compound `O=C([O-])[C@H](O)[C@@H](O)[C@H](O)[C@H](O)CO.[Na+]` [Sodium gluconate] has an SAM residual rate of 89.1%.
For `OC[C@@H](O)[C@@H](O)[C@H](O)[C@@H](O)CO` [Sorbitol], the SAM residual rate was 98.2%.
Compound `OC[C@H]1O[C@@](CO)(O[C@H]2O[C@H](CO)[C@@H](O)[C@H](O)[C@H]2O)[C@@H](O)[C@@H]1O` [Sucrose] has an SAM residual rate of 93.8%.
For `Cc1ncc(C[n+]2csc(CCO)c2C)c(N)n1` [thiamine hydrochloride], the SAM residual rate was 99.5%.
In the case of Cellulose, the SAM residual rate is reported as 92.0%.
With Ferric chloride hexahydrate the SAM residual rate was 95.7%.
Compound Fructo-oligosaccharide has an SAM residual rate of 85.9%.
Glycogen gave an SAM residual rate of 94.6%.
In the case of Inulin, the SAM residual rate is reported as 93.1%.
In the case of Isomalto-oligosaccharide, the SAM residual rate is reported as 84.9%.

Assay: Bioabsorbability of spray-dried yeast cells containing (SS)-SAM, oral administration (Example 5)
Format: in vivo
Conditions: SD rats, 20 g/L SAM at 5 ml/kg b.w., AUC at 8 hours after administration, dried yeast cells of Example 5
Procedure: The obtained dried yeast cells were matured in the presence of silica gel at 40° C. for 7 days. Thus, dried yeast cells containing (SS)-SAM were obtained. The obtained dried yeast cells containing (SS)-SAM were suspended in distilled water to result in an SAM concentration of 20 g/L. The resultant was orally administered to SD rats (male, 17 weeks old) at a dose of 5 ml/kg b.w. […] The resultant was orally administered to rats in the same manner such that comparative control examples were obtained. Before administration and 1, 2, 3, 5, or 8 hours after administration, blood collection was carried out from the jugular vein without any anesthesia and with the use of heparin as an anticoagulant. The plasma components were collected via centrifugation. A 0.4 g/L trichloroacetic acid aqueous solution (40 μL) was added to the obtained plasma (200 μl), followed by mixing and centrifugation. The SAM concentration in the obtained supernatant was analyzed by HPLC.
With `C[S+](CC[C@H](N)C(=O)[O-])C[C@H]1O[C@@H](n2cnc3c(N)ncnc32)[C@H](O)[C@@H]1O.Cc1ccc(S(=O)(=O)O)cc1.O=S(=O)(O)O.O=S(=O)(O)O` (stereo partly drawn) [SAM/p-toluenesulfonic acid/sulfate] the “Area under SAM concentration curve (AUC)” value was 3200 ng·h/mL.

Same assay, conditions: SD rats, 20 g/L SAM at 5 ml/kg b.w., dried yeast cells of Example 5 (spray dried)
In the case of `C[S+](CC[C@H](N)C(=O)[O-])C[C@H]1O[C@@H](n2cnc3c(N)ncnc32)[C@H](O)[C@@H]1O.Cc1ccc(S(=O)(=O)O)cc1.O=S(=O)(O)O.O=S(=O)(O)O` (stereo partly drawn) [SAM/p-toluenesulfonic acid/sulfate], the “Maximum SAM concentration in plasma” value is reported as 0.771 µg/mL.

Assay: Bioabsorbability of dried yeast cells containing (SS)-SAM, oral administration (Example 4)
Format: in vivo
Conditions: SD rats, 20 g/L SAM at 5 ml/kg b.w., AUC at 8 hours after administration, dried yeast cells of Example 1
Procedure: The resultant was orally administered to rats in the same manner such that comparative control examples were obtained. Before administration and 1, 2, 3, 5, or 8 hours after administration, blood was collected from the jugular vein without any anesthesia and with the use of heparin as an anticoagulant. The plasma components were collected via centrifugation. A 0.4 g/L trichloroacetic acid aqueous solution (40 μL) was added to the obtained plasma (200 μL), followed by mixing and centrifugation. The SAM concentration in the obtained supernatant was analyzed by HPLC. FIG. 1 and table 4 show the results.
For `C[S+](CC[C@H](N)C(=O)[O-])C[C@H]1O[C@@H](n2cnc3c(N)ncnc32)[C@H](O)[C@@H]1O.Cc1ccc(S(=O)(=O)O)cc1.O=S(=O)(O)O.O=S(=O)(O)O` (stereo partly drawn) [SAM/p-toluenesulfonic acid/sulfate], the “Area under SAM concentration curve (AUC)” value was 3200 ng·h/mL.

Same assay, conditions: SD rats, 20 g/L SAM at 5 ml/kg b.w., dried yeast cells of Example 1 (lyophilized)
In the case of `C[S+](CC[C@H](N)C(=O)[O-])C[C@H]1O[C@@H](n2cnc3c(N)ncnc32)[C@H](O)[C@@H]1O.Cc1ccc(S(=O)(=O)O)cc1.O=S(=O)(O)O.O=S(=O)(O)O` (stereo partly drawn) [SAM/p-toluenesulfonic acid/sulfate], the “Maximum SAM concentration in plasma” value is reported as 0.771 µg/mL.
